Measurements taken from PubChem BioAssay (NCI).
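Compound exposure: 48 hours, 5 concentrations, 96-well plates. GI50: concentration for 50% inhibition of growth. At the TGI there is no net growth.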

Legend:
Test in all cases: growth of human tumour cells (NCI), 48 h
KM20L2 colon = tested on: KM20L2 colon
DMS 273 small cell lung = tested on: DMS 273 small cell lung
SNB-78 CNS = tested on: SNB-78 CNS
XF 498 CNS = tested on: XF 498 CNS
HOP-18 NSCLC = tested on: HOP-18 NSCLC
BT-549 breast = tested on: BT-549 breast
MDA-MB-435 = tested on: MDA-MB-435
MCF7 breast = tested on: MCF7 breast
HS 578T breast = tested on: HS 578T breast
DU-145 prostate = tested on: DU-145 prostate
MDA-MB-231 breast = tested on: MDA-MB-231 breast
NCI/ADR-RES ovarian = tested on: NCI/ADR-RES ovarian

SMILES	TGI (KM20L2 colon) [µM]	TGI (DMS 273 small cell lung) [µM]	TGI (SNB-78 CNS) [µM]	TGI (XF 498 CNS) [µM]	TGI (HOP-18 NSCLC) [µM]	also measured
N#C/C(=C1\SC(N=Nc2ccccc2)C(=O)N1c1ccccc1)c1nc2ccccc2[nH]1 (configuration not stated)	> 100	> 100	> 100	85		
O=c1c2cccc3cccc(c4n1CCN=4)c32	> 100	> 100	> 100	> 100	> 100	
O=S1Nc2c(Cl)cc(Cl)c3c(Cl)cc(Cl)c(c23)N1	> 100	> 100			> 100	
COC(=O)C1[C@H](c2cc(OC)c(OC)c(OC)c2)OC(=O)C1(C(=O)OC)C(=O)c1ccc2c(c1)OCO2 (some centres not stated)	> 100	> 100	> 100	> 100		
FC(F)(F)C1(Br)C(c2ccccc2)=C1c1ccccc1	36.3	36.3	96.6	30.7	31.1	
CCc1cccc(CC)c1NC(=O)C1=C(C)NC(C)=C(C(=O)Nc2c(CC)cccc2CC)C1c1ccc([N+](=O)[O-])cc1	> 100			39.5		
Cc1cc(N(CCC#N)S(C)(=O)=O)ccc1C=Nc1ccc(C(=O)NN2C(=O)/C(=C/c3ccc(N(CCC#N)CCC#N)cc3C)N=C2c2cc([N+](=O)[O-])ccc2Cl)cc1	> 100	> 100	> 100	> 100	> 100	
CCOC(=N)CC(=O)c1ccccc1	> 100	> 100	> 100	> 100	> 100	
CC/C(CC(=O)CCC(=O)Nc1ccccc1[N+](=O)[O-])=N/NC(=O)C[n+]1ccccc1	> 100	> 100	> 100		> 100	
CCOC(=O)C(C)(C)Oc1ccc(/C=C/C(=O)c2ccc(Cl)cc2)cc1	33.7	34.6		39.1		
CCOC(=N)/C(=C1\OC(N)=C(c2ccc(Cl)cc2)C1=O)c1ccc(Cl)cc1	37.1	34.4	> 100	23.6	72.6	
CN1C(=O)C(=O)c2cc3c(c4c2c1cc1ccccc14)OCO3	> 100	> 100	> 100	> 100	> 100	
O=C1OC(O)C(Oc2c(Cl)cccc2Cl)=C1Cl (configuration not stated)	32.9	30.1	94.6		42.4	
COC(=O)C(Cc1nc2ccccc2[nH]c1=O)C(=O)C(=O)Nc1ccc([N+](=O)[O-])cc1[N+](=O)[O-] (configuration not stated)	38.3	47.5	> 100	34.6	32.1	
O=[N+]([O-])C1Cc2ccccc2OC1c1ccccc1 (configuration not stated)	> 100	> 100	51.5		> 100	
CCOc1cccc2ccc[n+](CC)c12	> 100	> 100		> 100	> 100	
C/C=C/CC(C)[C@@H](O)[C@H](NC)C(=O)O (some centres not stated)	> 100	> 100			> 100	
CC(=O)[CH-]C(=O)c1ccccc1.CC(=O)[CH-]C(=O)c1ccccc1.CCOCC[O-].CCOCC[O-].[Ti+4]	> 100					GI50 (KM20L2 colon): 19.6 µM
CC(C)(C)C(=O)OC12/C(=N/O)CCCCCC1c1ccccc12 (configuration not stated)	36.5	34.3	46.6		34	
Cc1c(C(=O)/C=C/c2ccc(N(C)C)cc2)c(=O)n(-c2ccccc2)n1C	> 100	> 100	> 100	> 100		
O=C(Nc1cccc(O)c1)C(=O)C(C(=O)c1ccc(Cl)c(Cl)c1)C1OC(=O)c2ccccc21 (configuration not stated)	37.3	39.5	> 100	25.6	> 100	

SMILES	TGI (KM20L2 colon) [µM]	TGI (DMS 273 small cell lung) [µM]	TGI (SNB-78 CNS) [µM]	TGI (XF 498 CNS) [µM]	TGI (HOP-18 NSCLC) [µM]	also measured
O=C1C(Cl)C(c2ccccc2O)N1n1cnc2ccccc2c1=O (configuration not stated)	> 100	> 100	> 100	17.9	> 100	
O=c1[nH]c2cc(Cl)ccc2nc1/C(=N\O)C(O)c1ccc([N+](=O)[O-])cc1 (configuration not stated)	> 100	> 100		> 100		
CN(C)C=C1C(Cl)=C(C=O)CC(C=O)=C1Cl	41	29			26.8	
CC(C)(C)C1CCC2c3c([nH]c4ccccc34)C3C(=O)N(c4ccccc4)C(=O)C3C2C1 (configuration not stated)		15	19	3	9.73	
C=C[C@@]1(O)CCCC2=C(C(=O)OCC)CC[C@]21C		> 100			> 100	
CC[N+]1(C)CCC(O)(c2ccc(OC)cc2)C(C(=O)c2ccc(OC)cc2)C1 (configuration not stated)	46.2	43.1	41.5	23.3	32.6	TGI (BT-549 breast): 32.3 µM; TGI (MDA-MB-435): 31.1 µM; TGI (MCF7 breast): 17.7 µM; TGI (HS 578T breast): 7.43 µM; TGI (DU-145 prostate): 32.7 µM
Cc1cc(Cl)ccc1NC(=O)C(=O)C(C(=O)c1ccc2ccccc2c1)C1OC(=O)c2ccccc21 (configuration not stated)	61.7	37.1	49.9		18.1	
O=C1C=CC(=O)c2cc(Sc3ccccc3)c(=O)ccc21	38	35.1	42.6		31.8	TGI (BT-549 breast): 40 µM; TGI (MDA-MB-435): 71 µM; TGI (MCF7 breast): 23.9 µM; TGI (MDA-MB-231 breast): 35.4 µM; TGI (HS 578T breast): 64.8 µM; TGI (DU-145 prostate): 31.5 µM; TGI (NCI/ADR-RES ovarian): 42.1 µM
CCCN(CCCC(NC(C)=O)C(=O)NCc1ccccc1)C(=O)NCCCl (configuration not stated)	> 100	> 100		> 100	> 100	
C[N+](C)(C)CC(=O)N/N=C(\C(=O)NC1=C(Cl)C(=O)c2ccccc2C1=O)C(C#N)c1csc(-c2ccc([N+](=O)[O-])cc2)n1 (configuration not stated)	> 100	> 100	> 100	> 100	> 100	
COC1=CC(=O)C2C(C1=O)C(c1ccccc1)[C@H]2C (some centres not stated)		> 100	> 10	49.1		
COc1ccc(OC)c2c1[nH]c(=O)c1c3ncccc3cn21						GI50 (BT-549 breast): > 100 µM; TGI (BT-549 breast): > 100 µM; GI50 (MDA-MB-435): 3.85 µM; TGI (MDA-MB-435): > 100 µM; GI50 (MCF7 breast): 2.17 µM; TGI (MCF7 breast): 27.3 µM; GI50 (MDA-MB-231 breast): 4.87 µM; TGI (MDA-MB-231 breast): > 100 µM; GI50 (HS 578T breast): 5.37 µM; TGI (HS 578T breast): > 100 µM; GI50 (DU-145 prostate): 3.45 µM; TGI (DU-145 prostate): 14.7 µM; GI50 (NCI/ADR-RES ovarian): 2.56 µM; TGI (NCI/ADR-RES ovarian): > 100 µM
CCc1cc(CCC(=O)Nc2c(C)cccc2C)[nH]n1	> 100	> 100	> 100	> 100	> 100	
COC(=O)Cc1ccc(Oc2cnc3cc(F)c(F)cc3n2)cc1						GI50 (BT-549 breast): > 100 µM; TGI (BT-549 breast): > 100 µM; GI50 (MDA-MB-435): > 100 µM; TGI (MDA-MB-435): > 100 µM; GI50 (MCF7 breast): > 100 µM; TGI (MCF7 breast): > 100 µM; GI50 (MDA-MB-231 breast): > 100 µM; TGI (MDA-MB-231 breast): > 100 µM; GI50 (HS 578T breast): > 100 µM; TGI (HS 578T breast): > 100 µM; GI50 (DU-145 prostate): > 100 µM; TGI (DU-145 prostate): > 100 µM; GI50 (NCI/ADR-RES ovarian): 23.8 µM; TGI (NCI/ADR-RES ovarian): 81.1 µM
NC(=O)c1cccc(Nc2nccc(Nc3cccc4[nH]ncc34)n2)c1						GI50 (BT-549 breast): 9.4 µM; TGI (BT-549 breast): > 25 µM; GI50 (MDA-MB-435): 8.58 µM; TGI (MDA-MB-435): > 25 µM; GI50 (MCF7 breast): 9.49 µM; TGI (MCF7 breast): > 25 µM; GI50 (MDA-MB-231 breast): 8.02 µM; TGI (MDA-MB-231 breast): > 25 µM; GI50 (HS 578T breast): 0.557 µM; TGI (HS 578T breast): 3.21 µM; GI50 (DU-145 prostate): 9.7 µM; TGI (DU-145 prostate): > 25 µM; GI50 (NCI/ADR-RES ovarian): > 25 µM; TGI (NCI/ADR-RES ovarian): > 25 µM
COc1cccc(C2c3cc4c(cc3OC(N3CCCC3)C2C)OCO4)c1O (configuration not stated)						TGI (BT-549 breast): > 43 µM; TGI (MDA-MB-435): 4.61 µM; TGI (MCF7 breast): > 83.6 µM; TGI (MDA-MB-231 breast): 45.8 µM; TGI (HS 578T breast): 18.5 µM; TGI (DU-145 prostate): > 36.9 µM; TGI (NCI/ADR-RES ovarian): 47.1 µM
CCN(CC)CCCNC(=O)c1c2c(n3ccccc13)C(=O)c1ncccc1C2=O						GI50 (BT-549 breast): 1.94 µM; TGI (BT-549 breast): 4.06 µM; GI50 (MDA-MB-435): 0.224 µM; TGI (MDA-MB-435): 0.506 µM; GI50 (MCF7 breast): 0.298 µM; TGI (MCF7 breast): 1.76 µM; GI50 (MDA-MB-231 breast): 0.404 µM; TGI (MDA-MB-231 breast): 9.73 µM; GI50 (HS 578T breast): 2.46 µM; TGI (HS 578T breast): 7.3 µM; GI50 (DU-145 prostate): 1.23 µM; TGI (DU-145 prostate): 2.56 µM; GI50 (NCI/ADR-RES ovarian): 3.02 µM; TGI (NCI/ADR-RES ovarian): 23.4 µM
COC(C(=O)NCCCCNC(=O)C(OC)c1ccccc1)c1ccccc1 (configuration not stated)	> 100	> 100	> 100	> 100	> 100	
CN(Cc1cc(Cl)cc(Cl)c1)CC(C(=O)c1ccccc1)c1ccccc1 (configuration not stated)						TGI (BT-549 breast): 17.6 µM; TGI (MDA-MB-435): 16 µM; TGI (MCF7 breast): > 44.1 µM; TGI (MDA-MB-231 breast): 23.5 µM; TGI (HS 578T breast): > 57.7 µM; TGI (DU-145 prostate): 20.9 µM; TGI (NCI/ADR-RES ovarian): 5.45 µM
COc1cc(CNC2c3cc4c(cc3C(c3cc(OC)c(OC)c(OC)c3)[C@H]3C(=O)OCC23)OCO4)cc(OC)c1OC (some centres not stated)	0.359			8.07	> 100	
CN(C)c1nc(=Nc2cccc(Cl)c2)ss1	35.5	29.9	34	32.4	> 100	
